Measurements published in patent publication US20130065825A1, “Compositions and Methods for Delaying Senescence or Cell Death in Neurons” (NEUROTEZ, INC., priority 2011, published 2013).

Experiments:
Aβ(1-40) = Aβ(1-40) in culture media of SY5Y-APP751 cells by ELISA; format: cell-based, human; conditions: 18 h; for effect of co-treatment on Leptin's reduction of Aβ(1-40): Leptin 500 ng/mL + nicotinamide 5 mM or compound C 20 μM, Aβ(1-40) returned to vehicle levels
Description: To generate SY5Y stably over-expressing amyloid precursor protein (APP), cells were transfected with a mammalian expression vector encoding the 751 amino acid isoform of human APP (APP751-Accession #NM_201413) (Origene Technologies; Rockville, Md.) using the FuGENE HD transfection reagent, according to manufacturer's specific instructions (Promega; Madison, Wis.). Briefly, cells were transiently transfected with APP751 or vehicle for 48 h and then switched into selection medium containing a concentration range of the antibiotic G418 (100-600 μg/mL) to determine the optimal dose for stable selection. Selection media was changed every 3 days to remove non-viable cells. After 3 weeks, 200 μg/mL G418 yielded distinct colonies while all vehicle-transfected cells were non-viable. Cells were maintained in 10% FBS media containing 200 μg/mL G418 for expansion.
(§1) Neuronal cells were treated with Leptin (500 ng/ml) in the presence or absence of nicotinamide (5 mM) or compound C (20 μM) for 6 or 18 h, depending on readout, and then harvested by scraping. Preparation of lysates and immunoblotting were performed as described.
(§2) Aβ(1-40) levels in cell culture media were determined using the Human β-Amyloid 1-40 ELISA kit (Invitrogen; Carlsbad, Calif.), and phospho- and total tau levels in cell culture lysates were determined using the Human Tau pSer^396, pThr^231 and Total Tau ELISA kits (Invitrogen) according to manufacturer's specific instructions.
The Human β-Amyloid 1-40 ELISA kit was used for the quantitative determination of human Aβ40 in samples (e.g., tissue culture medium, tissue homogenate, cerebrospinal fluid (CSF), and the like). The assay recognizes both natural and synthetic forms of human Aβ40. The anti-human Aβ40 antibody is capable of selectively detecting Aβ40 and not Aβ42/Aβ43. The Human β-Amyloid 1-40 ELISA kit is a solid phase sandwich Enzyme Linked-Immuno-Sorbent Assay (ELISA). […] This COOH-terminal sequence is created upon cleavage of the analyzed precursor. Bound rabbit antibody then is detected by the use of a horseradish peroxidase (HRP)-labeled anti-rabbit antibody. […]

[1] = test system: AMP-Activated Protein Kinase (AMPK); assay: AMPK activity assay (CycLex AMPK Kinase Assay Kit) in lysates of RA-SY5Y cells; format: cell-based, human
Description: (§3) For neuronal differentiation, 1×10^6 SY5Y or IMR-32 cells were grown in neruonal induction medium (NIM), which is consisted of MEM containing 2% FBS supplemented with 10 μM retinoic acid (RA). Cells were incubated in NIM for 6 days, and switched to serum-free NIM prior to treatment and harvesting on day 7.
as §1
AMP-Activated Protein Kinase (AMPK) activity in cell lysates was determined using the CycLex AMPK Kinase Assay Kit (MBL International; Woburn, Mass.), as described previously. Briefly, the term “relative AMPK activity” or “AMPK activity,” is defined as Compound C-sensitive protein kinase activity in cell lysates. Titration of various Compound C doses identified 10 μM as the dose in which there was no further reduction in kinase activity upon increasing concentration (data not shown). Neuronal cell lysates were incubated in the presence or absence of 10 μM Compound C, and protein kinase activity determined by measuring phosphorylation of the Insulin Receptor Substrate-1 (IRS-1) through immunoassay and conversion of a chromogenic substrate at an absorbance of 450 nm (A450). Normalized AMPK activity in the lysates was defined as: […]

phosphorylated tau = assay: Tau phosphorylation in RA-SY5Y cells by immunoblot (pTau181) and ELISA (pTau231, pTau396); format: cell-based, human; conditions: 6 h; for effect of co-treatment on Leptin's reduction of phospho-tau: Leptin 500 ng/mL + nicotinamide 5 mM or compound C 20 μM, phospho-tau returned to control levels; for Tau396 phosphorylation compared to control: nicotinamide 5 mM or compound C 20 μM, independent of Leptin treatment, ELISA
Description: as §3, §1, §2
The Invitrogen Human Tau (Total) kit is a solid phase sandwich Enzyme Linked-Immuno-Sorbent Assay (ELISA). Samples, including standards of known human Tau content, control specimens, and unknowns, are pipetted into the wells of microtiter strips, which are coated with a monoclonal antibody specific for human Tau. During the first incubation, the human Tau antigen binds to the immobilized (capture) antibody on one site. After washing, a rabbit polyclonal antibody specific for human Tau is added. During the second incubation, this antibody binds to the immobilized human Tau captured during the first incubation. After removal of excess second antibody, a horseradish peroxidase (HRP)-labeled anti-rabbit antibody is added. This binds to the rabbit polyclonal antibody to complete the four-member sandwich. After a third incubation and washing to remove all the excess anti-rabbit HRP, a substrate solution is added, which is acted upon by the bound enzyme to produce color. The intensity of this colored product is directly proportional to the concentration of human Tau present in the original specimen.

Total Sirtuins [2] = assay: SIRT activity assay (Fluor-de-Lys HDAC Fluorimetric Cellular Activity Assay Kit) in lysates of RA-SY5Y cells; format: cell-based, human; conditions: 6 h
Description: as §3, §1
Total Sirtuins activity in cell lysates was determined using the Fluro-de-Lys® HDAC Fluorimetric Cellular Activity Assay Kit (Enzo Life Sciences; Plymouth Meeting, Pa.), according to manufacturer's specified guidelines. “SIRT activity” in this assay is defined as nicotinamide-sensitive deacetylase (class III HDAC) activity in cell lysates. […] Neuronal cell lysates were incubated in the presence or absence of 5 mM nicotinamide, and SIRT activity determined by adding the Flour-de-Lys® Substrate for deacetylation followed by exposure to the Fluor-de-Lys® Developer to generate a fluorescent signal for detection using a fluorimeter (Ex. 350-380 nm; Em. 440-460 nm). Normalized SIRT activity in the lysates was measured in units of fluorescence intensity (Fi) and defined as: […]

Total Sirtuins [3] = conditions: identified by the manufacturer of the kit; cited from earlier work

## c1cc(-c2cnn3cc(-c4ccc(OCCN5CCCCC5)cc4)cnc23)ccn1 [compound C, 6-[4-(2-Piperidin-1-yl-ethoxy)-phenyl]-3-pyridin-4-yl-pyrrazolo[1,5,-α]pyrimidine]
Aβ(1-40)
  effect of co-treatment on Leptin's reduction of Aβ(1-40): reversed these effects
[1]; RA-SY5Y cells, Leptin 500 ng/mL + compound C 20 μM, 6 h, to levels similar to non-treated control
  AMPK activity on co-treatment with Leptin: significantly (p<0.05) reduced AMPK activity
[1]; titration in cell lysates, data not shown
  dose with no further reduction in kinase activity upon increasing concentration: 10 µM
Phosphorylated tau
  effect of co-treatment on Leptin's reduction of phospho-tau: negated these effects
  Tau396 phosphorylation compared to control: significantly (p<0.05) increased

## Leptin: recombinant human Leptin purchased from Sigma-Aldrich; pleiotropic hormone primarily secreted by adipocytes
Aβ(1-40); Leptin 500 ng/mL, no inhibitors, normalized to total protein, n=3
  Aβ(1-40) in culture media: significant (p<0.05) reduction
[1]; RA-SY5Y cells, Leptin 500 ng/mL, 6 h, normalized to total protein, n=3, p<0.05
  increase in AMPK kinase activity vs cells treated without Leptin: approximately 2 fold
Total Sirtuins [2]; Leptin 500 ng/mL, normalized to total protein, n=3, p<0.05
  increase in total SIRT deacetylase activity vs cells treated without Leptin: approximately 2.5 fold
Phosphorylated tau; Leptin 500 ng/mL, no SIRT or AMPK inhibition, normalized to total tau, n=3
  all examined phospho-tau species (pTau181, pTau231, pTau396): significant (p<0.05) reduction

## NC(=O)c1cccnc1 [nicotinamide]
Total Sirtuins [3]
  dose with no further reduction in deacetylase activity upon increasing concentration: 5 mM
Aβ(1-40)
  effect of co-treatment on Leptin's reduction of Aβ(1-40): reversed these effects
Total Sirtuins [2]; Leptin 500 ng/mL + nicotinamide 5 mM, to levels similar to non-treated control
  SIRT activity on co-treatment with Leptin: significantly (p<0.05) reduced SIRT activity
Phosphorylated tau
  effect of co-treatment on Leptin's reduction of phospho-tau: negated these effects
  Tau396 phosphorylation compared to control: significantly (p<0.05) increased
